The experiment has as its system pp65#23-specific CD4+ T cells. Nature of the experiment: Cytokine ELISPOT / ELISA of pp65#23-specific CD4+ T cells. In kind it is cell-based, human.

For the substance 221DQYVKVYLESFCEDVPSGKL240 [pp65#23], the “IL-10 and IL-17 secretion” value (IL-10 ELISPOT, IL-17 ELISA (limit of detection 15.0 pg/ml)) is “no IL-10 or IL-17 was detected”. In addition, the “IFN-γ and IL-4 secretion (ELISPOT)” value (antigen-specific, T2/DP4 pulsed with peptide, Figure 3B) was “predominantly secreted IFN-γ and much less IL-4”. The “IL-2 production (ELISPOT)” value (upon stimulation, Figure 3B) is on record as “produced IL-2”.

Values taken from article PMC3156899 (Clinical cancer research : an official journal of the …, 2011).
